The text below walks through data of PubChem BioAssay (NCI).

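Protocol summary: plate cells (96-well), add compound at 5 concentrations, incubate 48 h, interpolate endpoints linearly. The concentration for full growth arrest is given as TGI.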

What all share (assay): NCI tumour cell line growth inhibition, 48 h
For test [1], the system named is MDA-MB-435.
In test [2] the test system is PC-3 prostate.
Test [3] deals with RXF 393 renal.
Test [4] deals with NCI-H23 lung.
For test [5], the system named is U251 CNS.
In test [6] the test system is MDA-MB-231 breast.
The test system of test [7] is NCI-H522 lung.
Test [8] relates to UACC-62 melanoma.
Test [9] deals with T-47D breast.
Test [10] concerns K-562 leukemia.
In test [11] the test system is SN12C renal.
In test [12] the test system is ACHN renal.
The test system of test [13] is NCI-H460 lung.
In test [14] the test system is HT29 colon.
The test system of test [15] is SK-MEL-2 melanoma.
The subject of test [16] is HCT-15 colon.
Test [17] has as its system HOP-92 NSCLC.
Test [18] concerns DU-145 prostate.
The test system of test [19] is SR leukemia.
Test [20] deals with SNB-19 CNS.

Consider `COc1ccc(-c2nc3ccc(C)cc3o2)c(OC)c1`, for which the TGI stood at 52.9 µM in [1]; 67.1 µM in test [2]; 53.8 µM in test [3]; 87.5 µM in test [4]; 65 µM in test [5]; 50.5 µM in test [6]. Moreover, the TGI is 39.2 µM in test [7]; 70.2 µM in test [8]; more than 96.1 µM in [9]; more than 64.5 µM in [10]; more than 82.1 µM in [11]; more than 100 µM in test [12]. In addition, the TGI in test [13] is 65.6 µM; in test [14], 30.2 µM; in test [15] it was 71.7 µM; in test [16], 58.8 µM; in test [17], more than 66.8 µM; in test [18] it was 50.5 µM. Further, the figures for the TGI in [19] and in test [20] were more than 72.3 µM and 61.4 µM, respectively.
Take `COC(=O)C(Cc1ccccc1)NS(=O)(=O)c1ccc(-c2c3nc(c(-c4ccc(S(=O)(=O)NC(Cc5ccccc5)C(=O)OC)cc4)c4ccc([nH]4)c(-c4ccc(S(=O)(=O)NC(Cc5ccccc5)C(=O)OC)cc4)c4nc(c(-c5ccc(S(=O)(=O)NC(Cc6ccccc6)C(=O)OC)cc5)c5ccc2[nH]5)C=C4)C=C3)cc1` (stereo not given): the TGI in [1], in [2], in [3], in test [4], in test [5] and in [6] was more than 100 µM each time. The TGI in test [7], in test [8], in [9], in test [10], in test [11] and in test [12] was more than 100 µM each time. Further, the TGI in test [13], in test [14], in [15], in test [16], in test [17] and in test [18] was more than 100 µM throughout. Besides, the TGI in [19] and in test [20] was more than 100 µM in each case.
For the molecule `COC(=O)C1=NN2c3ccccc3CN([C@@H](C)c3ccccc3)C(=O)[C@@H]2C1`, the TGI in [1] was 34 µM; in test [2], more than 100 µM; in test [3] it was more than 100 µM; in test [4], more than 100 µM; in test [5] it was more than 100 µM; in [6], more than 100 µM. Also, the TGI in test [7] is 53.1 µM; in test [8], 66.8 µM; in test [9] it was 40.1 µM; in test [10], 76.6 µM; in [11] it was more than 100 µM; in test [12], more than 100 µM. Further, the TGI in test [13] is more than 100 µM; in [14], more than 100 µM; in test [15] it was 74.1 µM; in test [16], more than 100 µM; in test [17], more than 100 µM; in test [18], more than 100 µM. In addition, the TGI is 82.9 µM in test [19] and more than 100 µM in test [20].
`CCC(=S)N(C)O`: the TGI in test [1], in test [2], in test [3], in test [4], in test [5] and in test [6] was more than 100 µM each time. The TGI in test [7] is 8.28 µM; in test [8] it was 78.3 µM; in test [9], more than 100 µM; in test [10] it was more than 79.8 µM; in [11], more than 100 µM; in test [12] it was more than 100 µM. The TGI is 70.3 µM in [13]; 24.1 µM in [14]; 86.6 µM in test [15]; more than 100 µM in [16]; more than 100 µM in [17]; more than 100 µM in [18]. Besides, the TGI in [19] was 24.1 µM; in [20] it was more than 100 µM.
On to `CCOC(=O)c1sc2nc(SC)nc(Nc3ccc(OC)c(OC)c3)c2c1N`, for which the TGI in test [1] is more than 100 µM; in test [2], more than 100 µM; in test [3], 8.97 µM; in [4] it was more than 100 µM; in [5], more than 100 µM; in test [6] it was 82.4 µM. The TGI in [7], in test [8], in test [9], in test [10], in test [11] and in test [12] was more than 100 µM in each case. Further, the TGI in [13] was more than 100 µM; in test [14], more than 100 µM; in test [15], more than 100 µM; in test [16] it was more than 100 µM; in [17] it was 25.4 µM; in [18], more than 100 µM. The TGI in [19] is more than 100 µM; in test [20], 56 µM.
As for `CS(=O)(=O)C(=Cc1ccccc1Cl)S(C)(=O)=O`, the TGI in test [1], in [2], in [3], in [4], in test [5] and in test [6] was more than 100 µM throughout. The TGI in [7], in test [8], in [9], in test [10], in [11] and in test [12] was more than 100 µM in each case. For the same molecule, the TGI in test [13], in test [14], in [15], in [16], in [17] and in test [18] was more than 100 µM throughout. In addition, the TGI in [19] and in test [20] was more than 100 µM in each case.
`Cc1oc2c(c1C(=O)c1ccccc1)C(=O)c1ccccc1C2=O`: the TGI in [1] came to 2.97 µM; in test [2], 21.7 µM; in test [3], 8.2 µM; in test [4] it was 8.36 µM; in test [5], 21 µM; in test [6] it was 7.07 µM. Also, the TGI is 5.86 µM in test [7]; 7.72 µM in test [8]; 7.04 µM in test [9]; 5.89 µM in test [10]; 25.2 µM in test [11]; 15.3 µM in [12]. Further, the TGI in test [13] amounted to 34.2 µM; in test [14], 39.6 µM; in test [15] it was 9.04 µM; in test [16], 18.7 µM; in test [17], 4.65 µM; in test [18], 24.6 µM. The results for the TGI in test [19] and in test [20] were more than 36.6 µM and 23.7 µM, respectively.
